Test results: patent US7696408B2, “Method to enhance Agrobacterium-mediated transformation of plants” (Regents of the University of Minnesota, priority 1999, dated 2010)
Values joined by “and” are separate entries in the source; they are usually repeats but may differ in a detail not shown here. Equal entries are not always repeated. “Also recorded” adds a separate entry of the source.

How the values were obtained:
[1] = test system: soybean cot-node explants; test: De novo shoot production on explants at four weeks on shoot induction media; format: cell-based, Glycine max; details: Experiment #4, Bert
[2] = test system: soybean cot-node explants; test: GUS+ sectors, shoots and shoot primordia after 28 days (4 weeks) on shoot induction medium with PPT (stable transformation); format: cell-based, Glycine max; details: for % of explants with GUS+ shoots: Bert
Experimental: After 5 days, the explants were washed in a liquid shoot induction media (B5 salts, MSIII iron stock, 3% sucrose, 3 mM MES, and filter sterilized B5 vitamins, 1.67 mg/l BAP, 100 mg/l cefotaxime, and 500 mg/l ticarcillin; pH 5.6) to remove excess Agrobacterium. Seven to ten explants from each cysteine level were washed in liquid shoot induction medium and placed in GUS histochemical stain (Jefferson et al., 1987). These explants were scored for GUS transient expression. Five to ten explants from each group were imbedded into a single 25×100 mm petri plate with solid shoot induction media (0.8% agar and agent, e.g., 400 mg/l cysteine) containing PPT concentrations of 1.33 mg/l, 3.33 mg/l, or 5.0 mg/l for selection. The plates were then incubated in a growth chamber with a fluctuating temperature between 18° C.-30° C. under a 18 hours light/6 hours dark cycle at 90-150 μE/m^2s. The explants were removed from the chamber after 14 days and transferred to fresh shoot induction media containing herbicide selection. During the transfer, the hypocotyl was carefully removed from the developing shoot mass and imbedded into the media with the differentiating tissue flush with the media surface. The plates were placed back into the growth chamber for an additional 2 weeks. At the 4 week time point, explants without de novo shoot production were discarded. The cotyledons were then removed from the differentiating tissue by cutting at the base of the node and the callus trimmed before transferring into shoot elongation media containing MS salts (murashige and Skoog, 1962), MSIII iron stock, 3% sucrose, 3 mM MES, 0.8% agar, and filter sterilized B5 vitamins, 50 mg/l asparagine, 100 mg/l pyroglutamic acid, 1 mg/l zeatin riboside, 0.1 mg/l indole-acetic acid, 0.5 mg/l GA3, 100 mg/l cefotaxime, 500 mg/l ticarcillin, 1.3-5 mg/l PPT; pH 5.6). Also at this time, a percentage of the explants were sliced into about 10 sections and stained for both GUS positive sectors and GUS positive shoots. Every 2 weeks the explants were transferred into new shoot elongation media after removing dead plant tissue and the bottom of the explant cut to encourage shoot elongation of transformed shoots. For the 4 week data, the minimum number of transformation events was recorded. Those explants with a GUS positive sector in the differentiating tissue giving rise to shoots were recorded with the number of transformation events in bold and italicized (FIGS. 2-5). Shoot data was obtained by recording the number of fully formed shoots seen on an explant. […] To determine the effect of adding cysteine to the co-cultivation medium on stable transformation, co-cultured explants were cultured for 28 days on a shoot-inducing medium containing the herbicide, phosphinothricin (PPT). During the 28 day incubation, the explants usually form de novo callus and shoots in the cot-node region in a structure referred to as a callus/shoot pad (FIG. 9). The callus/shoot pads were sliced in approximately 5 mm sections, immersed into GUS histochemical stain, and scored for GUS^+ sectors throughout the callus/shoot pad. […] The formation of transgenic shoot primordia and sectors extending into developing shoot tissues were also scored on 28 day sections of explants co-cultivated on 0 and 400 mg/l cysteine (FIG. 10A). Only those GUS^+ shoot primordia with obvious trichomes, which are characteristic to leaf tissue, or GUS^+ sectors originating and extending into the tissue at the base of developing shoots (referred to hereafter as differentiating tissue) were scored (FIG. 1A2).

[3] = test system: Japonica rice meristem cultures; details: individually or in combination; Enríguez-Obregón et al., 1999; cited from earlier work
[4] = test system: soybean; test: Production of transgenic soybean plants; design: species or system Glycine max; details: cysteine 400-1000 mg/l
[5] = test system: fava bean explants; test: Enzymatic browning of fava bean explants; format: cell-based; details: cysteine (e.g., 400-1000 mg/l) in solid co-cultivation medium
[6] = cysteine 400-1000 mg/l, eight independent experiments

SMILES: N[C@@H](CS)C(=O)O [L-cysteine]
- explants that developed de novo shoots ([1]; 0S,400L): 75%
- explants that developed de novo shoots ([1]; 400L,0S (mg/l cysteine liquid, solid), control 0L,0S 76%): 47%
- explants that developed de novo shoots ([1]; 400L,400S): 68%
- % of explants with GUS+ shoots ([2]; 400 mg/l cysteine and 3.33 mg/l PPT): 16.6% and 16.7%
- % of explants with GUS+ shoots ([2]; 400 mg/l cysteine and 5 mg/l PPT): 33.3%
- average number of GUS+ sectors per explant, each genotype tested ([2]; 400 mg/l cysteine vs no cysteine, 28 day): significantly greater
- frequency of explants with a GUS+ sector in differentiating tissue, relative to no cysteine ([2]; 400 mg/l cysteine, 28 days): 3.5 fold
- percent of explants with GUS+ shoot primordia, relative to no cysteine ([2]; 400 mg/l cysteine, 28 days): 5 fold
- average GUS+ foci/explant scored after 4 weeks of shoot initiation ([2]; 400 mg/l cysteine, low selection pressure 1.6 to 3.33 mg/l PPT, control 3.3): 15.6 GUS+ foci/explant
- percent of explants with GUS+ shoot primordia or differentiated sectors, difference from 0 mg/l cysteine ([2]; 400 mg/l shoot primordia and differentiated sectors, 1000 mg/l shoot primordia, α=0.05): significantly differ
- increase in GUS+ sectors over the control explants ([2]; 1000 mg/l cysteine, 28 days): 3.6 fold
- average number of GUS+ sectors per explant compared to no cysteine ([2]; 300 to 1000 mg/l cysteine (FIG. 9 also 1500 mg/l), 28 days, P<0.05): significantly higher; also recorded: significantly differ
- increase in GUS+ sectors over the no cysteine control ([2]; 400 to 1000 mg/l cysteine, 28 days): > 3 fold
- explants with GUS+ shoot primordia at other cysteine levels ([2]; all other levels of cysteine tested, except 50 mg/l, 28 days): at least one explant
- GUS+ foci at the 28-day interval ([2]; amended to solid co-cultivation media): increase
- increase in GUS+ shoot primordia after 28 days [2, 6]: 5 fold
- increase in stable T-DNA integration after 28 days [2, 6]: 3.6 fold
- number of GUS+ sectors on the callus/shoot pad, cysteine in shoot induction medium ([2]; cysteine added to shoot induction medium for 28 days): did not increase
- increase in stable T-DNA transfer in newly developed shoot primordia ([2]; cysteine in co-cultivation media): ≥ 5 fold
- damage and viability of Japonica rice meristem cultures [3]: decreased damage and increased viability
- increase in production of transgenic plants [4]: 2 fold
- enzymatic browning of fava bean explants [5]: decreased
